Results taken from ChEMBL document CHEMBL4251632, “Synthesis and antidepressant-like activity of novel aralkyl piperazine derivatives targeting SSRI/5-HT1A/5-HT7” (Eur J Med Chem, 2018).

Key:
[1] = target: Sodium-dependent serotonin transporter (Rattus norvegicus) (UniProt P31652); assay: Inhibition of [3H]serotonin reuptake in rat brain synaptosomes SERT at 10 uM after 15 mins by TopCount scintillation counting method relative to control; type: subcellular
[2] = target: T1, 5-hydroxytryptamine receptor 1A (Homo sapiens) (UniProt P08908); assay: Displacement of [3H]8-OH-DPAT from recombinant human 5-HT1A receptor expressed in HEK293 cell membranes at 10 uM after 60 mins by TopCount scintillation counting method relative to control
T1 sequence (whole entry): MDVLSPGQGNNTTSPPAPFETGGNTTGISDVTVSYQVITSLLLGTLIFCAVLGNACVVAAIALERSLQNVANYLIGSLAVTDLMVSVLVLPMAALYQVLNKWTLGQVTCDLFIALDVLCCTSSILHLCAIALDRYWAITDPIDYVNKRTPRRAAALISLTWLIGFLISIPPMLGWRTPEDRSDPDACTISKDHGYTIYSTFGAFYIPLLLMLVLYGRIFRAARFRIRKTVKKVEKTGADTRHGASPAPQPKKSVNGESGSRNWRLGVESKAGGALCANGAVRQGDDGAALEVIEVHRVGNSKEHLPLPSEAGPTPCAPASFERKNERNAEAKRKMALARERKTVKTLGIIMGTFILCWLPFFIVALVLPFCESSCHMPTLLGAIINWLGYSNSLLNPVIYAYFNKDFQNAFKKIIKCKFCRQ

[3] = target: T2, 5-hydroxytryptamine receptor 7 (Homo sapiens, UniProt P34969); assay: Displacement of [3H]LSD from recombinant human 5-HT7 receptor expressed in CHO cell membranes at 10 uM after 120 mins by TopCount scintillation counting method relative to control
T2 sequence (P34969 whole entry): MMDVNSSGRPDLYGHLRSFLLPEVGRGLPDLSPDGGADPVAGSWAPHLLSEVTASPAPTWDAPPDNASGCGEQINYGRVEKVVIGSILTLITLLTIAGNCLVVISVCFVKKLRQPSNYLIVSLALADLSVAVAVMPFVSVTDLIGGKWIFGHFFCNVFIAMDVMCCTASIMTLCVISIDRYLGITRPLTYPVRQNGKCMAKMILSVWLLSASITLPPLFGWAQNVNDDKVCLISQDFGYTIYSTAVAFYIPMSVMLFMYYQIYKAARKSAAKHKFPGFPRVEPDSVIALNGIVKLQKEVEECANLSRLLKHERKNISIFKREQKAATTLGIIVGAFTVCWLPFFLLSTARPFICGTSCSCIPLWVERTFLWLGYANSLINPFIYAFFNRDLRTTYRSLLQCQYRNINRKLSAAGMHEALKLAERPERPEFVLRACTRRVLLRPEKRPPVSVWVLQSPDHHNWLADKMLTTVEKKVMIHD

[4] = target: Sodium-dependent serotonin transporter (Rattus norvegicus, UniProt P31652); assay: Inhibition of [3H]serotonin reuptake in rat brain synaptosomes SERT after 15 mins by TopCount scintillation counting method; type: subcellular
Chain of Sodium-dependent serotonin transporter (Rattus norvegicus, UniProt P31652) (P31652 whole entry): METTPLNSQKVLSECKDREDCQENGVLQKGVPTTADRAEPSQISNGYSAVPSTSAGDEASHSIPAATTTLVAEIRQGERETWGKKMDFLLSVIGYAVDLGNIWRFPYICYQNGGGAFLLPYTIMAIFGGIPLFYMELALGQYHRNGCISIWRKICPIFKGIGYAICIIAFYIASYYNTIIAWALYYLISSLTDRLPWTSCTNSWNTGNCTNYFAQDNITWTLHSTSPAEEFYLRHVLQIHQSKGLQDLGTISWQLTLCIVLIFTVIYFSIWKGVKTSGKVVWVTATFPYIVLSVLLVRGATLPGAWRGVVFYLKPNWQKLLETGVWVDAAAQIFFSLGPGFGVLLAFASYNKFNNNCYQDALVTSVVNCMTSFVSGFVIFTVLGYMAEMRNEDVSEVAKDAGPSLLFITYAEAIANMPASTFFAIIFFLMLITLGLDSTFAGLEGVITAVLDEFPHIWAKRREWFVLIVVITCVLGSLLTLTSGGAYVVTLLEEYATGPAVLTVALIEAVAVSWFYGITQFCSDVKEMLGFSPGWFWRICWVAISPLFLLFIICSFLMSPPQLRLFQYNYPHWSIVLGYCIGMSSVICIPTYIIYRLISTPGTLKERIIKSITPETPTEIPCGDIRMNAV

[5] = target: T3, 5-hydroxytryptamine receptor 1A (Homo sapiens, UniProt P08908); assay: Displacement of [3H]8-OH-DPAT from recombinant human 5-HT1A receptor expressed in HEK293 cell membranes after 60 mins by TopCount scintillation counting method
T3 sequence (P08908 whole entry): T1 sequence (whole entry)

[6] = target: T2, 5-hydroxytryptamine receptor 7; assay: Displacement of [3H]LSD from recombinant human 5-HT7 receptor expressed in CHO cell membranes after 120 mins by TopCount scintillation counting method
[7] = Clearance in rat liver microsomes at 1 uM in presence of NADPH by LC-MS/MS analysis; type: ADME, microsome; conditions: read-out: CLH
in vitro = conditions: rat, liver microsomes
Description: Half life in rat liver microsomes at 1 uM in presence of NADPH by LC-MS/MS analysis

Mus musculus [8] = assay: Antidepressant-like activity in mouse assessed as reduction in immobility time at 40 mg/kg/day, po once daily for 7 days measured for last 4 mins of 6 mins test at 1 hr post last dose by forced swim test relative to control; type: functional; parameters: scale not given: the % may be the effect or the level left
Mus musculus [9] = assay: Antidepressant-like activity in mouse assessed as reduction in immobility time at 20 mg/kg/day, po once daily for 7 days measured for last 4 mins of 6 mins test at 1 hr post last dose by forced swim test relative to control; type: functional; parameters: scale not given: the % may be the effect or the level left
Mus musculus [10] = assay: Antidepressant-like activity in mouse assessed as reduction in immobility time at 10 mg/kg/day, po once daily for 7 days measured for last 4 mins of 6 mins test at 1 hr post last dose by forced swim test relative to control; type: functional; parameters: scale not given: the % may be the effect or the level left
Mus musculus [11] = assay: Antidepressant-like activity in po dosed mouse assessed as reduction in immobility time administered once daily for 7 days measured for last 4 mins of 6 mins test at 1 hr post last dose by forced swim test; type: functional, organism-based
Mus musculus [12] = assay: Antidepressant-like activity in mouse assessed as reduction in immobility time at 40 mg/kg/day, po administered once daily for 7 days measured for 5 mins at 1 hr post last dose by tail suspension test relative to control; type: functional; parameters: scale not given: the % may be the effect or the level left
[13] = target: Sodium-dependent serotonin transporter (Homo sapiens, UniProt P31645)
Chain of Sodium-dependent serotonin transporter (Homo sapiens, UniProt P31645) (P31645 whole entry): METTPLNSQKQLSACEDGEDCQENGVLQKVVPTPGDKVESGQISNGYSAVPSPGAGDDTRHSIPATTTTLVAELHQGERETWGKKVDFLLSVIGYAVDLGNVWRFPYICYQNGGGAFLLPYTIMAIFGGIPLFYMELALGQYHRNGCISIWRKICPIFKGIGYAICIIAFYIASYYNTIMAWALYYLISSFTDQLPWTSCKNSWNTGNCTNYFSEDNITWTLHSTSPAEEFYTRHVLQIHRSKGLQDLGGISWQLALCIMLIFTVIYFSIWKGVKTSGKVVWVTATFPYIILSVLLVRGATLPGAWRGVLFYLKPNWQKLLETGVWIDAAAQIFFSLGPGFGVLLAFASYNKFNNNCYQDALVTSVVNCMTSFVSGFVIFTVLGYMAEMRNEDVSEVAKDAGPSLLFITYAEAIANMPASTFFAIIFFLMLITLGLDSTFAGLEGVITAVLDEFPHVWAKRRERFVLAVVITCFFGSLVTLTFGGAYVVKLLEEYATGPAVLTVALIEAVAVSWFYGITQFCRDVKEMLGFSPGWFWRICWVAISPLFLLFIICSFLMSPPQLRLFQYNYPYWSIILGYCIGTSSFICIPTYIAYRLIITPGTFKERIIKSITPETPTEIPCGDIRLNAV
Description: Inhibition of serotonin reuptake in SERT (unknown origin)

Chain of Sodium-dependent serotonin transporter (Rattus norvegicus) (P31652 whole entry): as the sequence (P31652 whole entry) above

`COc1ccc(-c2ccccc2N2CCN(CCc3c[nH]c4ccc(F)cc34)CC2)cc1` gave an inhibition [1] of 82.8%, an inhibition [2] of 99.2% and an inhibition [3] of 94.7%.

Work on `N#Cc1ccc(-c2ccccc2N2CCN(CCc3c[nH]c4ccc(F)cc34)CC2)cc1` yielded an inhibition [1] of 84.2%, an inhibition [2] of 99.5% and an inhibition [3] of 97.3%.

In the case of `Fc1cccc(-c2c(F)cccc2N2CCN(CCCc3c[nH]c4ccc(F)cc34)CC2)c1`, the inhibition [1] is reported as over 90%, the IC50 [4] is reported as 0.01 µM and the inhibition [2] is reported as over 90%. It also gave a Ki [5] of 0.018 µM, an inhibition [3] of over 90% and a Ki [6] of 0.00055 µM. It also gave a microsomal CLint at 1 µM [7] of 51.5 µL/min/mg and a half-life at 1 µM (in vitro) of 26.9 min.

Work on `Fc1cccc(-c2cc(F)ccc2N2CCN(CCCc3c[nH]c4ccc(F)cc34)CC2)c1` yielded an inhibition [1] of over 90%, an IC50 [4] of 0.031 µM and an inhibition [2] of over 90%. For the same molecule, the Ki [5] was 0.062 µM, the inhibition [3] was over 90% and the Ki [6] was 0.012 µM. For the same molecule, the microsomal CLint at 1 µM [7] was 24.4 µL/min/mg, the Activity (Mus musculus [8]) was 37% and the Activity (Mus musculus [9]) was 21%. The Activity (Mus musculus [10]) was 18%, the Activity (Mus musculus [11]) was “Dose-dependent effect” and the half-life at 1 µM (in vitro) was 56.8 min.

With `Fc1ccc2[nH]cc(CCN3CCN(c4ccccc4-c4ccccc4F)CC3)c2c1` the inhibition [1] was over 90%, the IC50 [4] was 0.096 µM and the inhibition [2] was over 90%. It also gave a Ki [5] of 0.025 µM, an inhibition [3] of over 90% and a Ki [6] of 0.0023 µM. For the same molecule, the microsomal CLint at 1 µM [7] was 343 µL/min/mg and the half-life at 1 µM (in vitro) was 4 min.

In the case of `Fc1cccc(-c2cc(F)ccc2N2CCN(CCCCc3c[nH]c4ccc(F)cc34)CC2)c1`, the inhibition [1] is reported as over 90%, the IC50 [4] is reported as 0.12 µM and the inhibition [2] is reported as 96%. The inhibition [3] was 97.5%.

Molecule `Fc1cccc(-c2ccccc2N2CCN(CCc3c[nH]c4ccc(F)cc34)CC2)c1` has an inhibition [1] of over 90%, an IC50 [4] of 0.15 µM and an inhibition [2] of over 90%. For the same molecule, the Ki [5] was 0.0056 µM, the inhibition [3] was 0.79% and the Ki [6] was 0.00079 µM. For the same molecule, the microsomal CLint at 1 µM [7] was 155 µL/min/mg and the half-life at 1 µM (in vitro) was 9 min.

With `Fc1ccc2[nH]cc(CCCN3CCN(c4ccccc4-c4ccccc4)CC3)c2c1` the inhibition [1] was over 90%, the IC50 [4] was 0.0076 µM and the inhibition [2] was over 90%. It also gave a Ki [5] of 0.013 µM, an inhibition [3] of over 90% and a Ki [6] of 0.0011 µM.

`Fc1cccc(-c2ccccc2N2CCN(CCCc3c[nH]c4ccc(F)cc34)CC2)c1` showed an inhibition [1] of over 90%, an IC50 [4] of 0.042 µM and an inhibition [2] of over 90%. The Ki [5] was 0.0081 µM, the inhibition [3] was over 90% and the Ki [6] was 0.0011 µM. The microsomal CLint at 1 µM [7] was 50 µL/min/mg and the half-life at 1 µM (in vitro) was 27.7 min.

With `Fc1cccc(-c2ccc(F)cc2N2CCN(CCCc3c[nH]c4ccc(F)cc34)CC2)c1` the inhibition [1] was over 90%, the IC50 [4] was 0.0094 µM and the inhibition [2] was over 90%. For the same molecule, the Ki [5] was 0.015 µM, the inhibition [3] was over 90% and the Ki [6] was 0.0026 µM. It also gave a microsomal CLint at 1 µM [7] of 48.1 µL/min/mg and a half-life at 1 µM (in vitro) of 28.8 min.

`c1ccc(-c2ccccc2N2CCN(CCc3cc4ccccc4o3)CC2)cc1` gave an inhibition [1] of over 90%, an IC50 [4] of 2.9 µM and an inhibition [2] of 97.7%. For the same molecule, the inhibition [3] was 96.4%.

Molecule `CSc1ccccc1N1CCN(CCc2coc3ccccc23)CC1` has an inhibition [1] of 112%, an inhibition [2] of 99.7% and an inhibition [3] of 86.8%.

In the case of `Cc1ccc(-c2ccccc2N2CCN(CCc3c[nH]c4ccc(F)cc34)CC2)cc1`, the inhibition [1] is reported as over 90%, the IC50 [4] is reported as 1.7 µM and the inhibition [2] is reported as 101%. It also gave an inhibition [3] of 99.5%.

For `Cc1cccc(-c2ccccc2N2CCN(CCc3c[nH]c4ccc(F)cc34)CC2)c1`, the inhibition [1] was over 90%, the IC50 [4] was 0.16 µM and the inhibition [2] was 98.1%. The inhibition [3] was 97.3%.

With `COc1ccc(C(CN(C)C)C2(O)CCCCC2)cc1` (stereo not given) [VENLAFAXINE] the Activity (Mus musculus [12]) was 35%.

In the case of `Cc1ccc(Sc2ccccc2N2CCNCC2)c(C)c1` [VORTIOXETINE], the Activity (Mus musculus [8]) is reported as 48 - 52%.

Work on `c1ccc(-c2ccccc2N2CCN(CCc3coc4ccccc34)CC2)cc1` yielded an inhibition [1] of over 90%, an IC50 [4] of 0.21 µM and an inhibition [2] of 99.5%. The inhibition [3] was 102%.

`N#Cc1ccc2[nH]cc(CCN3CCN(c4ccccc4-c4ccccc4)CC3)c2c1` showed an inhibition [1] of over 90%, an IC50 [4] of 0.19 µM and an inhibition [2] of 97.6%. It also gave an inhibition [3] of 93.7%.

In the case of `COc1ccccc1N1CCN(CCc2coc3ccccc23)CC1`, the inhibition [1] is reported as 110%, the inhibition [2] is reported as 98.5% and the inhibition [3] is reported as 85.6%.

For `Fc1ccc2[nH]cc(CCN3CCN(c4ccccc4-c4ccccc4)CC3)c2c1`, the inhibition [1] was over 90%, the IC50 [4] was 0.11 µM and the inhibition [2] was over 90%. It also gave a Ki [5] of 0.00053 µM, an inhibition [3] of over 90% and a Ki [6] of 0.00026 µM. It also gave a microsomal CLint at 1 µM [7] of 226 µL/min/mg and a half-life at 1 µM (in vitro) of 6.1 min.

`Fc1cc2c(c(OCCNCCCc3c[nH]c4ccc(F)cc34)c1)OCCC2` gave a Ki [13] of 0.00047 µM.

In the case of `Fc1ccc(-c2ccccc2N2CCN(CCc3c[nH]c4ccc(F)cc34)CC2)cc1`, the inhibition [1] is reported as over 90%, the IC50 [4] is reported as 0.59 µM and the inhibition [2] is reported as 101%. It also gave an inhibition [3] of 94.9%, a microsomal CLint at 1 µM [7] of 144 µL/min/mg and a half-life at 1 µM (in vitro) of 9.6 min.

In the case of `COc1ccccc1N1CCN(CCCN2CCOc3ccccc32)CC1`, the Ki [13] is reported as 0.195 µM.

Work on `c1ccc(-c2cccc(N3CCN(CCc4coc5ccccc45)CC3)c2)cc1` yielded an inhibition [1] of 99.4%, an inhibition [2] of 97.5% and an inhibition [3] of 71.9%.
